Experimental data: patent US10966970B2, “Fused tricyclic compounds and uses thereof in medicine” (SUNSHINE LAKE PHARMA CO., LTD., priority 2017, dated 2021)

Legend:
[1] = test system: HBsAg secretion; assay: Inhibition of HBsAg secretion (ELISA); type: cell-based, HBV; conditions: Hepatitis B virus, HepG2.2.15, 240 h, read-out: HbsAg IC50 (nM)
Experimental: (§1) The chromosomes of HepG2.2.15 cells (SELLS, PNAS, 1987 and SELLS, JV, 1988) integrate the complete HBV genome and stably express viral RNA and viral proteins. HepG2.2.15 cells are able to secrete mature HBV particles and HBsAg into the culture medium. Viral particle DNA and HBsAg secreted by HepG 2.2.15 cells can be quantified by qPCR and ELISA methods, and the effects of the compound on virus replication and HBsAg secretion are thus examined.
(§2) HepG 2.2.15 Cells (8,000 per well) were seeded into 96-well cell culture plates in duplicate and cultured for 3 days until the cells grew to fill in pores. Cells were treated with 4-fold serial diluted compound solution for 10 days, and the compound solution was exchanged once every other day, the final concentration of DMSO in all wells was 0.5% and DMSO was used as a drug-free control. On the eleventh day, the supernatant was collected for quantitative detection of HBsAg.
The level of HBsAg secreted by the cells after treatment with the compound was detected by ELISA. The method used a hepatitis B surface antigen diagnostic kit (Shanghai K ehua Biotechnology Co., Ltd. 510910113). 25 ≈L of the supernatant to be examined (diluted to 75 ≈L in PBS) was added to each well of the ELISA plate, and a kit-positive control and a negative control were set. The ELISA plates were blocked with mounting paper and incubated at 37 eC for 60 minutes. The ELISA plate was took out, and the mounting paper was removed, then 50 ≈L of enzyme conjugate was added into each well. After shaking for 10 seconds, the ELISA plates were blocked with mounting paper and incubated at 37 eC for 30 minutes. The ELISA plate was took out, and the mounting paper was removed, and the ELISA plate was repeated washing five times: liquid in the wells was discard each time; the wells was filled with washing solution, then stood for 60 seconds and spined dry; and liquid residue on blotting paper was patted dry. After the washing was completed, to all wells was immediately added a mixture of freshly prepared developer A and developer B: 100 ≈L per well. After shaking for 10 seconds on oscillator, the ELISA plates were blocked with mounting paper and incubated at 37 eC for 30 minutes. To all wells were added 50 ≈L of stop solution. Data were read at a wavelength of 450 nm on an Envision plate reader. Concentration-HBsAg OD450 value was treated with Graphpad Prism 5 software and the IC50 of inhibition of HBsAg secretion by compounds was calculated by a four-parameter nonlinear regression model.

[2] = test system: HBV DNA replication; assay: Inhibition of HBV virus replication (HBV DNA in supernatant, qPCR); type: cell-based; conditions: Hepatitis B virus, 240 h; HepG2.2.15 cells, 10 days treatment, supernatant HBV DNA by qPCR
Experimental: as §1
as §2, with “HBV DNA.” for “HBsAg.”
qPCR method was used for detection of viral genomic DNA, HBV primers were as follows: HBV-For-202, […]; HBV-Rev-315, […].
Using the SY BR Premix Ex Taq II—Takara DRR081S kit, 1 ≈L of the cell culture supernatant was used as a template, a plasmid containing the HBV genome was used for plotting a standard curve, and virus copy number was calculated using the standard curve. Concentration-virus copy number was treated with Graphpad Prism 5 software and the IC50 of inhibition of virus replication by compounds was calculated by a four-parameter nonlinear regression model.

| SMILES | IC50 [1] [nM] | IC50 [2] [nM] |
| --- | --- | --- |
| COCCCOc1cc2c(cc1-c1ncc(Br)s1)-c1cc(=O)c(C(=O)O)cn1C(C(C)C)C2 (centres unmarked) [Example 24, 10-(5-bromothiazol-2-yl)-6-isopropyl-9-(3-methoxypropoxy)-2-oxo-6,7-dihydro-2H-pyrido[2,1-a]isoquinoline-3-carboxylic Acid] | 9.99 | 8.63 |
| COCCCOc1cc2c(cc1-c1ccco1)-c1cc(=O)c(C(=O)O)cn1C(C(C)C)C2 (centres unmarked) [Example 11, 10-(furan-2-yl)-6-isopropyl-9-(3-methoxypropoxy)-2-oxo-6,7-dihydro-2H-pyrido[2,1-a]isoquinoline-3-carboxylic Acid] | 1.6 | 1.9 |
| COc1cc2c(cc1-c1nccs1)CC(C(C)C)n1cc(C(=O)O)c(=O)cc1-2 (centres unmarked) [Example 75, 6-isopropyl-10-methoxy-2-oxo-9-(thiazol-2-yl)-6,7-dihydro-2H-pyrido[2,1-a]isoquinoline-3-carboxylic Acid] | 2.41 | 2.1 |
| COc1cc2c(cc1-c1ncc(Br)s1)CC(C(C)C)n1cc(C(=O)O)c(=O)cc1-2 (centres unmarked) [Example 80, 9-(5-bromothiazol-2-yl)-6-isopropyl-10-methoxy-2-oxo-6,7-dihydro-2H-pyrido[2,1-a]isoquioline-3-carboxlic Acid] | 2.16 | 2.57 |
| COCCCOc1cc2c(cc1-c1ccccn1)-c1cc(=O)c(C(=O)O)cn1C(C(C)C)C2 (centres unmarked) [Example 67, 6-isopropyl-9-(3-methoxypropoxy)-2-oxo-10-(pyridin-2-yl)-6,7-dihydro-2H-pyrido[2,1-a]isoquinoline-3-carboxylic Acid] | 7.77 | 4.36 |
| COCCCOc1cc2c(cc1-c1ncco1)-c1cc(=O)c(C(=O)O)cn1C(C(C)C)C2 (centres unmarked) [Example 10, 6-isopropyl-9-(3-methoxypropoxy)-10-(oxazol-2-yl)-2-oxo-6,7-dihydro-2H-pyrido[2,1-a]isoquinoline-3-carboxylic Acid] | 10.5 | 7.29 |
| CC(C)C1Cc2cc(OCCC3CC3)c(-c3nccs3)cc2-c2cc(=O)c(C(=O)O)cn21 (centres unmarked) [Example 22, 9-(2-cyclopropylethoxy)-6-isopropyl-2-oxo-10-(thiazol-2-yl)-6,7-dihydro-2H-pyrido[2,1-a]isoquinoline-3-carboxylic Acid] | 0.65 | 0.84 |
| CC(=O)c1cc2c(cc1N1CCCC1)CC(C(C)C)n1cc(C(=O)O)c(=O)cc1-2 (centres unmarked) [Example 30, 10-acetyl-6-isopropyl-2-oxo-9-(pyrrolidin-1-yl)-6,7-dihydro-2H-pyrido[2,1-a]isoquinoline-3-carboxylic Acid] | 7.83 | 7.68 |
| CC(=O)c1cc2c(cc1-c1ccco1)CC(C(C)C)n1cc(C(=O)O)c(=O)cc1-2 (centres unmarked) [Example 31, 10-acetyl-9-(furan-2-yl)-6-isopropyl-2-oxo-6,7-dihydro-2H-pyrido[2,1-a]isoquinoline-3-carboxylic Acid] | 8.2 | 6.26 |
| COC(=O)c1cc2c(cc1N1CCCC1)CC(C(C)C)n1cc(C(=O)O)c(=O)cc1-2 (centres unmarked) [Example 34, 6-isopropyl-10-(methoxycarbonyl)-2-oxo-9-(pyrrolidin-1-yl)-6,7-dihydro-2H-pyrido[2,1-a]isoquinoline-3-carboxylic Acid] | 9.85 | 4.74 |
| COCc1csc(-c2cc3c(cc2OC)-c2cc(=O)c(C(=O)O)cn2C(C(C)C)C3)n1 (centres unmarked) [Example 78, 6-isopropyl-10-methoxy-9-(4-(methoxymethyl)thiazol-2-yl)-2-oxo-6,7-dihydro-2H-pyrido[2,1-a]isoquinoline-3-carboxylic Acid] | 3.26 | 2.84 |
| COCCCOc1cc2c(cc1-c1cncs1)-c1cc(=O)c(C(=O)O)cn1C(C(C)C)C2 (centres unmarked) [Example 33, 6-isopropyl-9-(3-methoxypropoxy)-2-oxo-10-(thiazol-5-yl)-6,7-dihydro-2H-pyrido[2,1-a]isoquinoline-3-carboxylic Acid] | 3.08 | 1.93 |
| COCCCOc1cc2c(cc1C(=O)OCC(F)F)-c1cc(=O)c(C(=O)O)cn1C(C(C)C)C2 (centres unmarked) [Example 35, 10-((2,2-difluoroethoxy)carbonyl)-6-isopropyl-9-(3-methoxypropoxy)-2-oxo-6,7-dihydro-2H-pyrido[2,1-a]isoquinoline-3-carboxylic Acid] | 9.25 | 7.59 |
| CCOCc1cc2c(cc1OCCCOC)CC(C(C)C)n1cc(C(=O)O)c(=O)cc1-2 (centres unmarked) [Example 7, 10-(ethoxymethyl)-6-isopropyl-9-(3-methoxypropoxy)-2-oxo-6,7-dihydro-2H-pyrido[2,1-a]isoquinoline-3-carboxylic Acid] | 13.5 | 8.16 |
| COCCCOc1cc2c(cc1-c1csc(N)n1)-c1cc(=O)c(C(=O)O)cn1C(C(C)C)C2 (centres unmarked) [Example 8, 10-(2-aminothiazol-4-yl)-6-isopropyl-9-(3-methoxypropoxy)-2-oxo-6,7-dihydro-2H-pyrido[2,1-a]isoquinoline-3-carboxylic Acid] | 6.28 | 4.46 |
| COC(=O)c1cc2c(cc1-c1ccco1)CC(C(C)C)n1cc(C(=O)O)c(=O)cc1-2 (centres unmarked) [Example 32, 9-(furan-2-yl)-6-isopropyl-10-(methoxycarbonyl)-2-oxo-6,7-dihydro-2H-pyrido[2,1-a]isoquinoline-3-carboxylic Acid] | 9.62 | 7.57 |
| CC(C)C1Cc2cc(OCc3ccccc3)c(-c3nccs3)cc2-c2cc(=O)c(C(=O)O)cn21 (centres unmarked) [Example 18, 9-(benzyloxy)-6-isopropyl-2-oxo-10-(thiazol-2-yl)-6,7-dihydro-2H-pyrido[2,1-a]isoquinoline-3-carboxylic Acid] | 5.53 | 8.09 |
| COCCCOc1cc2c(cc1C(C)=O)-c1cc(=O)c(C(=O)O)cn1C(C(C)C)C2 (centres unmarked) [Example 6, 10-acetyl-6-isopropyl-9-(3-methoxypropoxy)-2-oxo-6,7-dihydro-2H-pyrido[2,1-a]isoquinoline-3-carboxylic Acid] | 3.63 | 3.02 |
| COc1cc2c(cc1-c1ccco1)CC(C(C)C)n1cc(C(=O)O)c(=O)cc1-2 (centres unmarked) [Example 16, 9-(furan-2-yl)-6-isopropyl-10-methoxy-2-oxo-6,7-dihydro-2H-pyrido[2,1-a]isoquinoline-3-carboxylic Acid] | 3.2 | 1.99 |
| COC(=O)c1cc2c(cc1-c1ccc(Cl)o1)CC(C(C)C)n1cc(C(=O)O)c(=O)cc1-2 (centres unmarked) [Example 74, 9-(5-chlorofuran-2-yl)-6-isopropyl-10-(methoxycarbonyl)-2-oxo-6,7-dihydro-2H-pyrido[2,1-a]isoquinoline-3-carboxylic Acid] | 3.68 | 2.97 |
| COCCCOc1cc2c(cc1-c1cscn1)-c1cc(=O)c(C(=O)O)cn1C(C(C)C)C2 (centres unmarked) [Example 13, 6-isopropyl-9-(3-methoxypropoxy)-2-oxo-10-(thiazol-4-yl)-6,7-dihydro-2H-pyrido[2,1-a]isoquinoline-3-carboxylic Acid] | 1.48 | 0.64 |
| COCCCOc1cc2c(cc1C(=O)CCC(F)(F)F)-c1cc(=O)c(C(=O)O)cn1C(C(C)C)C2 (centres unmarked) [Example 53, 6-isopropyl-9-(3-methoxypropoxy)-2-oxo-10-(4,4,4-trifluorobutanoyl)-6,7-dihydro-2H-pyrido[2,1-a]isoquinoline-3-carboxylic Acid] | – | 7.99 |
| COC(=O)c1cc2c(cc1N1CC[C@H](OC(C)=O)C1)CC(C(C)C)n1cc(C(=O)O)c(=O)cc1-2 (stereo partly drawn) [Example 47, 9-((S)-3-acetoxypyrrolidin-1-yl)-6-isopropyl-10-(methoxycarbonyl)-2-oxo-6,7-dihydro-2H-pyrido[2,1-a]isoquinoline-3-carboxylic Acid] | – | 6.35 |
